Laboratory results from PubChem BioAssay AID2060616 (Molecular Pharmacology Branch, DTP, NCI, 2025).

Test system: 377384-186-R-J1-PDC complex spheroid viability
Experiment: Anticancer human tumor 377384-186-R-J1-PDC patient-derived pancreatic carcinoma cell line growth inhibition [CLK]
Conditions: for IC50: curve of first compound; for viability, T/C: stronger effect = lower value; active = viability on the fitted dose curve at most 10% of control; inactive = the rest
Outline: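 Patient-derived tumor cells grown as complex spheroids with HUVEC endothelial cells and mesenchymal stem cells, treated with drug combinations. Concentrations descend in half-log steps from near clinical Cmax, or from 10 microM if Cmax unknown.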

[1] = second compound 0.0316 µM, first compound 0.0316 µM
[2] = second compound 0.0316 µM, first compound 0.1 µM
[3] = second compound 0.0316 µM, first compound 0.316 µM
[4] = second compound 0.0316 µM, first compound 1 µM
[5] = second compound 0.0316 µM, first compound 3.16 µM
[6] = second compound 0.0316 µM, first compound 10 µM
[7] = second compound 0.1 µM, first compound 0.0316 µM
[8] = second compound 0.1 µM, first compound 0.1 µM
[9] = second compound 0.1 µM, first compound 0.316 µM
[10] = second compound 0.1 µM, first compound 1 µM
[11] = second compound 0.1 µM, first compound 3.16 µM
[12] = second compound 0.1 µM, first compound 10 µM
[13] = second compound 0.316 µM, first compound 0.0316 µM
[14] = second compound 0.316 µM, first compound 0.1 µM
[15] = second compound 0.316 µM, first compound 0.316 µM
[16] = second compound 0.316 µM, first compound 1 µM
[17] = second compound 0.316 µM, first compound 3.16 µM
[18] = second compound 0.316 µM, first compound 10 µM
[19] = second compound 1 µM, first compound 0.0316 µM
[20] = second compound 1 µM, first compound 0.1 µM
[21] = second compound 1 µM, first compound 0.316 µM
[22] = second compound 1 µM, first compound 1 µM
[23] = second compound 1 µM, first compound 3.16 µM
[24] = second compound 1 µM, first compound 10 µM
[25] = second compound 3.16 µM, first compound 0.0316 µM
[26] = second compound 3.16 µM, first compound 0.1 µM
[27] = second compound 3.16 µM, first compound 0.316 µM
[28] = second compound 3.16 µM, first compound 1 µM
[29] = second compound 3.16 µM, first compound 3.16 µM
[30] = second compound 3.16 µM, first compound 10 µM
[31] = second compound 10 µM, first compound 0.0316 µM
[32] = second compound 10 µM, first compound 0.1 µM
[33] = second compound 10 µM, first compound 0.316 µM
[34] = second compound 10 µM, first compound 1 µM
[35] = second compound 10 µM, first compound 3.16 µM
[36] = second compound 10 µM, first compound 10 µM
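Also: spheroids exposed to agents for 7 days before reading.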
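For viability, T/C in this document: luminescence signal used as a stand-in for viable cells.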

CC1COCCN1c1cc(C2(S(C)(=N)=O)CC2)nc(-c2ccnc3[nH]ccc23)n1 (stereo unspecified) + CN1CCN(c2cc(C(=O)Nc3cc4cc(-c5cnn(C)c5)ccc4cn3)ccn2)CC1
< 0.0316 µM: IC50 (second compound 0.316 µM) | IC50 (second compound 1 µM) | IC50 (second compound 3.16 µM) | IC50 (second compound 10 µM)
active: viability, T/C [19] 1.04% | viability, T/C [20] 1.24% | viability, T/C [21] 1.39% | viability, T/C [22] 1.11% | viability, T/C [23] 0.85% | viability, T/C [24] 0.48% | viability, T/C [25] 0.45% | viability, T/C [26] 0.34% | viability, T/C [27] 0.48% | viability, T/C [28] 0.44% | viability, T/C [29] 0.69% | viability, T/C [30] 0.65% | viability, T/C [31] 0.51% | viability, T/C [32] 0.45% | viability, T/C [33] 1.23% | viability, T/C [34] 0.54% | viability, T/C [35] 1.37% | viability, T/C [36] 0.58%
1.84 µM: IC50 (second compound 0.1 µM)
inactive: viability, T/C [1] 97.6% | viability, T/C [2] 102% | viability, T/C [3] 97.8% | viability, T/C [4] 77.3% | viability, T/C [5] 36.7% | viability, T/C [6] 19.1% | viability, T/C [7] 110% | viability, T/C [8] 108% | viability, T/C [9] 95.5% | viability, T/C [10] 69.1% | viability, T/C [11] 33.1% | viability, T/C [12] 17.2% | viability, T/C [13] 27% | viability, T/C [14] 32% | viability, T/C [15] 24.1% | viability, T/C [16] 24.8% | viability, T/C [17] 14.1% | viability, T/C [18] 9.42%
2.16 µM: IC50 (second compound 0.0316 µM)

COc1ccc([C@@H](O)c2cc(-c3ncnc4cc(N5CCOCC5)ccc34)c(F)cc2Cl)nn1 + CN1CCN(c2cc(C(=O)Nc3cc4cc(-c5cnn(C)c5)ccc4cn3)ccn2)CC1
4.23 µM: IC50 (second compound 0.1 µM)
inactive: viability, T/C [1] 119% | viability, T/C [2] 111% | viability, T/C [3] 88.8% | viability, T/C [4] 78.2% | viability, T/C [5] 59.3% | viability, T/C [6] 42.5% | viability, T/C [7] 114% | viability, T/C [8] 99.9% | viability, T/C [9] 73.7% | viability, T/C [10] 70.6% | viability, T/C [11] 57.6% | viability, T/C [12] 37.2% | viability, T/C [13] 18.3% | viability, T/C [14] 22.8% | viability, T/C [15] 16.8% | viability, T/C [16] 18.1% | viability, T/C [17] 18.5% | viability, T/C [18] 16%
6.04 µM: IC50 (second compound 0.0316 µM)
active: viability, T/C [19] 0.76% | viability, T/C [20] 0.63% | viability, T/C [21] 0.7% | viability, T/C [22] 1.13% | viability, T/C [23] 1.12% | viability, T/C [24] 1.02% | viability, T/C [25] 0.38% | viability, T/C [26] 0.32% | viability, T/C [27] 1.16% | viability, T/C [28] 0.36% | viability, T/C [29] 0.35% | viability, T/C [30] 0.98% | viability, T/C [31] 0.49% | viability, T/C [32] 0.35% | viability, T/C [33] 0.33% | viability, T/C [34] 0.39% | viability, T/C [35] 1.26% | viability, T/C [36] 0.36%
< 0.0316 µM: IC50 (second compound 0.316 µM) | IC50 (second compound 1 µM) | IC50 (second compound 3.16 µM) | IC50 (second compound 10 µM)

C=C(F)C(=O)N1CCN(c2nc(OCC3CCCN3C)nc3c2CCN(c2cccc4cccc(Cl)c24)C3)CC1CC#N (stereo unspecified) + CN1CCN(c2cc(C(=O)Nc3cc4cc(-c5cnn(C)c5)ccc4cn3)ccn2)CC1
inactive: viability, T/C [1] 96.6% | viability, T/C [2] 97.2% | viability, T/C [3] 91.7% | viability, T/C [4] 83.5% | viability, T/C [5] 23.2% | viability, T/C [7] 94.1% | viability, T/C [8] 101% | viability, T/C [9] 81.4% | viability, T/C [10] 72.5% | viability, T/C [11] 22.4% | viability, T/C [13] 30.5% | viability, T/C [14] 32.5% | viability, T/C [15] 30.3% | viability, T/C [16] 23.9% | viability, T/C [17] 17.9%
1.63 µM: IC50 (second compound 0.1 µM)
active: viability, T/C [6] 0.18% | viability, T/C [12] 0.15% | viability, T/C [18] 0.31% | viability, T/C [19] 1.57% | viability, T/C [20] 1.56% | viability, T/C [21] 2.02% | viability, T/C [22] 1.49% | viability, T/C [23] 1.66% | viability, T/C [24] 0.44% | viability, T/C [25] 0.52% | viability, T/C [26] 0.83% | viability, T/C [27] 0.4% | viability, T/C [28] 0.56% | viability, T/C [29] 0.32% | viability, T/C [30] 0.34% | viability, T/C [31] 0.6% | viability, T/C [32] 0.4% | viability, T/C [33] 0.42% | viability, T/C [34] 0.45% | viability, T/C [35] 0.17% | viability, T/C [36] 0.19%
< 0.0316 µM: IC50 (second compound 0.316 µM) | IC50 (second compound 1 µM) | IC50 (second compound 3.16 µM) | IC50 (second compound 10 µM)
1.89 µM: IC50 (second compound 0.0316 µM)
